Results on four compounds are retold here after PMC4734333, “Structural characterisation of human galectin-4 N-terminal carbohydrate recognition domain in complex with glycerol, lactose, 3′-sulfo-lactose, and 2′-fucosyllactose” (Scientific Reports, 2016).

Format in all cases: binding
Assay [1] addresses T1, galectin-4N (human galectin-4 N-terminal CRD) (Homo sapiens, UniProt P56470).
T1 construct: gene LGALS4
T1 sequence (P56470 1-154): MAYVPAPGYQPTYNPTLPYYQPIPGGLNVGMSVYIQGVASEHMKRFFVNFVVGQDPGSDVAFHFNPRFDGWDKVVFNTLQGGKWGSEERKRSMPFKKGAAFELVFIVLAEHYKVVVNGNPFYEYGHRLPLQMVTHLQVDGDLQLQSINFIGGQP
Description: X-ray crystal structure ([…] Å) and competitive fluorescence anisotropy.

The target of assay [2] is T1, galectin-4N (human galectin-4 N-terminal CRD). The description is as above. The source holds these as a separate data set.
Assay [3] has the same target. The description is as above. This is another data set of the same source.
Assay [4] addresses T2, galectin-4N (human galectin-4 N-terminal CRD) (Homo sapiens, UniProt P56470).
T2 construct: gene LGALS4; N-terminal CRD (galectin-4N)
T2 sequence (P56470 1-154 limits assumed): T1 sequence (P56470 1-154)
Description: competitive fluorescence anisotropy.

In the case of `OC[C@H]1O[C@@H](O[C@H]2[C@H](O)[C@@H](O)C(O)O[C@@H]2CO)[C@H](O)[C@@H](O)[C@H]1O` (stereo partly shown) [lactose], binding in assay [1] was put at a Kd of 1300 µM.

On to `O=S(=O)(O)O[C@H]1[C@@H](O)[C@@H](CO)O[C@@H](O[C@H]2[C@H](O)[C@@H](O)C(O)O[C@@H]2CO)[C@@H]1O` (stereo partly shown) [3′SuL, lactose-3′-sulfate], for which the affinity in assay [2], expressed as Kd, was 510 µM.

The compound `C[C@@H]1O[C@@H](O[C@H]2[C@H](O[C@H]3[C@H](O)[C@@H](O)C(O)O[C@@H]3CO)O[C@H](CO)[C@H](O)[C@@H]2O)[C@@H](O)[C@H](O)[C@@H]1O` (stereo partly shown) [2′FL, 2′-fucosyllactose] displayed a Kd in assay [3] of 380 µM.

Take `CC(=O)N[C@H]1[C@@H](O[C@H]2[C@@H](O)[C@@H](CO)O[C@@H](O[C@H]3[C@H](O)[C@@H](O)C(O)O[C@@H]3CO)[C@@H]2O[C@@H]2O[C@@H](C)[C@@H](O)[C@@H](O)[C@@H]2O)O[C@H](CO)[C@H](O)[C@@H]1O` (stereo partly shown) [A-tetrasaccharide]: the dissociation constant Kd in assay [4] was 164 µM.
